Experimental data reported in patent US5387409A, “Boronic acid adducts of rhenium dioxime and technetium-99m dioxime complexes containing a biochemically active group” (Bracco International B.V., priority 1992, dated 1995).

How the values were obtained:
[1] = Cyclic voltammetry in DMF (peak potential vs. Ag/AgNO3); format: physicochemical; conditions: for Epc(DMF): cathodic peak potential in DMF vs. Ag/AgNO3 (Table 3); for Peak Potential (EP), Nitro-base Anodic / Peak Potential (EP), Nitro-base Cathodic: DMF, scan rate = 100 mV/sec, Ag/AgNO3 reference (Table 2)
xanthine oxidase = experiment: Enzyme assay: xanthine oxidase reduction (disappearance of the nitro compound, UV/Visible 326 nm); format: biochemical
Method: The nitroimidazole boronic acids in this invention were examined in an assay using the enzyme xanthine oxidase. […] All reagents were degassed prior to mixing by passage of argon over the surface for 20 minutes. Loss of the nitro group (an indication of reduction) was monitored every 5 minutes using a UV/Visible spectrophotometer set at 326 nm. The half-lives of disappearance of the nitro compounds were determined by plotting log (concentration) mmole/ml vs time for all compounds studied.

[2] = Electrochemical peak potential (cathodic) in water vs. saturated calomel electrode; format: physicochemical; conditions: cathodic peak potential in water vs. saturated calomel electrode (Table 3)
[3] = Biodistribution: lung uptake of amine-containing 99mTc (BATO) complexes in rats; format: in vivo; conditions: I.V.
Method: Biodistribution Results for Amine-substituted Boron complexes, ^99m Tc(chloride)(dimethylglyoxime)3 B-R (wherein R is or contains an amine)
The other complexes listed were prepared using the methodology described in Example 2. Lung uptake at 5 and 60 minutes post I.V. administration of these compounds was noted.

estrogen receptor = experiment: In vitro estrogen receptor binding studies, cytosolic preparations of isolated rat uteri; conditions: rat uteri cytosol; preparations with specific activity from 400 to 2000 Ci/mmol
[4] = hypoxanthine, pH 7.4, 0.25 μMoles nitro compound

O=[N+]([O-])c1cn(Cc2ccc(B(O)O)cc2)cn1 [BB4NO2, 1-(4-Nitroimidazole)-benzylboronic acid]
Epc(DMF) [1]: -1.80 V | half life (enzyme assay) (xanthine oxidase; [4]): 95 min | Epc(Aqueous) [2]: -0.50 V

^99m Tc(chloride)(dimethylglyoxime)3 [4-[2-[(1-methylethyl)amino]propyl]phenyl]boron
% Injected Dose in Lungs, 5 min. P.I. ([3]; 5 min. post-injection): 3.25 % Injected Dose | % Injected Dose in Lungs, 60 min. P.I. ([3]; 60 min. post-injection): 2.19 % Injected Dose

O=[N+]([O-])c1nccn1Cc1ccc(B(O)O)cc1 [BBNO2, 1-(2-Nitroimidazoyl)benzylboronic acid]
half life (enzyme assay) (xanthine oxidase; [4]): 11 min

O=[N+]([O-])c1nccn1CCc1ccc(B(O)O)cc1 [BPhEtNO2, 4-(2-Nitroimidazolylethyl)phenyl boronic acid]
Epc(DMF) [1]: -1.53 V | half life (enzyme assay) (xanthine oxidase; [4]): 42.5 min | Epc(Aqueous) [2]: -0.30 V

O=[N+]([O-])c1nccn1CC=CB(O)O [BPropeneNO2, 2-Nitroimidazolyl-N1-[2-propenyl]-3-boronic acid]
Epc(DMF) [1]: -1.56 V | half life (enzyme assay) (xanthine oxidase; [4]): 24 min | Epc(Aqueous) [2]: -0.30 V

Cc1ncc([N+](=O)[O-])n1CCO [Metronidazole, reference compound]
Peak Potential (EP), Nitro-base Anodic [1]: -1.55 | Peak Potential (EP), Nitro-base Cathodic [1]: -1.63 | Epc(DMF) [1]: -1.62 V | half life (enzyme assay) (xanthine oxidase; pH 7.4): > 1440 min | Epc(Aqueous) [2]: -0.46 V

^99m/99 Tc(chloride)(dimethylglyoxime)3 (estradiol boron) [technetium labeled estradiol]
specific binding (estrogen receptor): 10-30 % of the total bound activity

COCC(O)Cn1ccnc1[N+](=O)[O-] (stereo not drawn) [Misonidazole, reference compound]
Peak Potential (EP), Nitro-base Anodic [1]: -1.43 | Peak Potential (EP), Nitro-base Cathodic [1]: -1.51 | Epc(DMF) [1]: -1.49 V | half life (enzyme assay) (xanthine oxidase; [4]): 45 min | Epc(Aqueous) [2]: -0.33 V

^99 Tc(chlorine)(dimethylglyoxime)3 -1-(2-nitroimidazoyl)benzylboron [Complex of Example 15]
Peak Potential (EP), Nitro-base Anodic [1]: -1.51 | Peak Potential (EP), Nitro-base Cathodic [1]: -1.58

^99 Tc(chlorine)(1,2-cyclohexanedione dioxime)3 1-(2-nitroimidazoyl)benzyl boron [Complex of Example 13]
Peak Potential (EP), Nitro-base Anodic [1]: -1.50 | Peak Potential (EP), Nitro-base Cathodic [1]: -1.56
